Measurements published in US20240325489A1, “CONNEXIN 43 FOR USE IN THE TREATMENT OF RETINOBLASTOMA PROTEIN POSITIVE TUMOURS” (FUNDACIÓN PROFESOR NOVOA SANTOS, priority 2021, published 2024).
“Also recorded” adds a separate entry of the source.

How the values were obtained:
MCF7 cells [1] = test: Colony formation assay; type: cell-based, human; details: for reduction in cell proliferation: FIG. 3c, MCF7, 500 nM Palbociclib 7 days, compared with untreated control
Protocol: Retroviral infection was used to overexpress Cx43 in MCF7 cells. Retroviral particles were generated by transfecting pLPCX-Cx43 and pLPCX-EV plasmids, kindly donated by Dr. Trond Aasen, and retroviral helper plasmids (vsvg and gag-pol) with Polyethylenimine (PEI) in HEK293T packaging cells for 48 h. The supernatant was then filtered with 0.45 μm filters and applied to MCF7 cells in the presence of 4 μg/ml polybrene (hexadimethrine bromide; Sigma-Aldrich) following 3 rounds of infection. Cells were subsequently selected with the appropriate antibiotic resistance using 0.5 μg/ml puromycin (Sigma).
(§1) Cells were treated with 250 nM of Palbociclib (PD0332991) (APExBIO), 500 nM Abemaciclib (LY2835219) (Selleckchem) or 500 nM Ribociclib (LEE011) (Selleckchem) for 7 days. All treatments were done using DMEM supplemented with 10% FBS and 100 U/mL penicillin and 100 μg/ml streptomycin. Media was replaced every 2 days.
(§2) Colony formation assays were performed plating 5×10^3 to 5×10^4 cells per well onto 6-12 well plates and grown for 7-15 days. Medium was replaced every 48 h. The cells were washed with warm Saline Solution and fixed with cold 4% PFA for 15 min. Cells were washed with PBS and stained with 0.05% of crystal violet (Sigma-Aldrich) for 15 min. After staining, the cells were washed with distilled water and dried at room temperature. The colonies were quantified by diluting crystal violet in 30% acetic acid and 100 μL of the solution was collected to measure the absorbance at 570 nm using a NanoQuant microplate reader Infinite M200 (TECAN).
HEK 293T cells were seeded onto 162 cm^2 culture flasks (Corning, Sigma-Aldrich) until confluence (80%-90%). Cells were washed three times with PBS and cultured for 48 h in DMEM 0% FBS. Supernatants were collected and centrifuged at 1800 rpm for 5 min. Pellet was discarded and supernatants were filtered through a 0.22 μm filter and then the filtered supernatants were centrifuged at 100,000 g for 90 min at 4° C. (Optimal-90K ultracentrifuge) using 70 Ti rotor (Beckman Coulter). Supernatants were discarded and pellet-containing sEVs were washed with PBS and centrifuged at 100,000 g for 90 min at 4° C. The pellet with sEVs was resuspended in culture medium. Target cells (MCF7 or T47D cells) were treated with sEVs in the presence/absence of CDK 4/6 inhibitors for 48 h. 3 rounds of treatment were performed. For NTA Nanosight NS300 analysis and sEV protein and RNA content determination, a second ultracentrifugation with PBS was performed, and sEV pellet was resuspended in PBS. […]

[2] = test system: MCF7 cells expressing the vector control (EV); test: IC50 calculation, Palbociclib dose-response, crystal violet; type: cell-based; details: Homo sapiens, 168 h; MCF7 EV (no Cx43), 7 days treatment, absorbance 570 nm
Protocol: (§3) Rb positive cell lines MCF7 (breast cancer), T47D (breast cancer) and A375 (melanoma) were cultured in Dulbecco's modified Eagle's medium (DMEM) (Lonza) supplemented with 10% fetal bovine serum (FBS) (Gibco, Thermo Fisher Scientific) and 100 U/mL penicillin and 100 μg/ml streptomycin (Gibco, Thermo Fisher Scientific). HT29 (colon adenocarcinoma) was cultured in McCoy'S 5A medium (Sigma-Aldrich) supplemented with 10% FBS and 100 U/mL penicillin and 100 μg/ml streptomycin. Cells were maintained at 37° C. in 5% CO2 humidified incubator (SANYO CO2). The medium was changed every 2 days.
(§4) Retroviral infection was used to overexpress Cx43 in MCF7 cells. Retroviral particles were generated by transfecting pLPCX-Cx43 and pLPCX-EV plasmids, kindly donated by Dr. Trond Aasen, and retroviral helper plasmids (vsvg and gag-pol) with Polyethylenimine (PEI) in HEK293T packaging cells for 48 h. The supernatant was then filtered with 0.45 μm filters and applied to MCF7 cells in the presence of 4 μg/ml polybrene (hexadimethrine bromide; Sigma-Aldrich) following 3 rounds of infection. […]
(§5) IC50s were calculated using cell cultures from MCF7 (EV and Cx43) and T47D cells treated with different concentrations of the CDK4/6 inhibitor Palbociclib for 7 days. Cells were stained with crystal violet and cell number was assessed measuring the absorbance at 570 nm.

[3] = test system: MCF7 cells overexpressing Cx43 (MCF7 Cx43); test: as above; type: cell-based; details: Homo sapiens, 168 h; MCF7 containing Cx43, 7 days treatment, absorbance 570 nm
Protocol: as §3, §4, §5

T47D cells [4] = test: as above; type: cell-based; details: Homo sapiens, 168 h; T47D (lower Cx43 than MCF7-Cx43), 7 days treatment
Protocol: as §3, with “days. IC50s were calculated using cell cultures from MCF7 (EV and Cx43) and T47D cells treated with different concentrations of the CDK4/6 inhibitor Palbociclib for 7 days. Cells were stained with crystal violet and cell number was assessed measuring the absorbance at 570 nm.” for “days.”

A375 melanoma cells = test: Colony formation assay; type: cell-based, human; details: A375 Cx43 vs EV, 7 days, 250 nM Palbociclib, 500 nM Abemaciclib and Ribociclib
Protocol: (§6) Cell lines (A375 and HT29) were transfected by electroporation to overexpress Cx43. The Amaxa® Cell Line Nucleofector® Kit V (Lonza) was used to transfect cells in a Cell Line Nucleofector™ Device (Lonza). A million cells were harvested and resuspended in 100 μL of Nucleofector® solution. 3 μg of the corresponding plasmid was added, and the mixture was transferred into an electroporation cuvette using the U-28 program. Cell lines were transfected with pIRESpuro2 plasmid construct (Clontech) containing the human Cx43 sequence, kindly donated by Arantxa Tabernero (Institute of Neuroscience of Castilla y León, University of Salamanca, Spain). The transfected cells were seeded in culture medium and 24 hours (h) post-transfection the medium was replaced with complete medium containing puromycin dihydrochloride (Tocris, Bioscience) at different concentrations depending of the cell line (0.5 μg/mL to 2 μg/mL). […]
(§7) Colony formation assays were performed plating 5×10^3 to 5×10^4 cells per well onto 6-12 well plates and grown for 7-15 days. […] The colonies were quantified by diluting crystal violet in 30% acetic acid and 100 μL of the solution was collected to measure the absorbance at 570 nm using a NanoQuant microplate reader Infinite M200 (TECAN).

T47D cells [5] = test: Colony formation assay; type: cell-based; details: 7 days treatment
Protocol: as §1, §2
HEK 293T cells were seeded onto 162 cm^2 culture flasks (Corning, Sigma-Aldrich) until confluence (80%-90%). Cells were washed three times with PBS and cultured for 48 h in DMEM 0% FBS. Supernatants were collected and centrifuged at 1800 rpm for 5 min. Pellet was discarded and supernatants were filtered through a 0.22 μm filter and then the filtered supernatants were centrifuged at 100,000 g for 90 min at 4° C. […]

[6] = test system: HT29 colon adenocarcinoma cells; test: Proliferation of colon cells (colony formation); type: cell-based; details: HT29 Cx43 vs EV, 7 days, 250 nM Palbociclib, 500 nM Abemaciclib and Ribociclib
Protocol: as §6, §7

MCF7 cells [7] = test: Senescence and apoptosis markers (western-blot, qPCR, SA-β-galactosidase); type: cell-based, human
Protocol: Cells were grown onto coverslips and fixed with 4% paraformaldehyde (PFA) for 10 min at room temperature (RT). Cells were then washed twice with PBS and permeabilized by incubation with 0.2% Triton X-100 (Sigma) in PBS for 10 min at RT. After a PBS wash, cells were blocked 30 min at RT using 1% BSA in PBS supplemented with 0.1% Tween-20 (PBST). Primary antibodies were diluted in 1% BSA-PBST and incubated overnight (anti-Cx43 (#C6219), Sigma-Aldrich 1:1000; anti-Tubulin (T9026). Cells were then washed with PBS and incubated with secondary antibodies for 1 h at RT. HRP-conjugated secondary antibodies used were anti-mouse (NA-931, Sigma-Aldrich) and anti-rabbit ([…], Sigma-Aldrich). Cells were washed with PBS and fixed with 4% paraformaldehyde for 15 mins at room temperature. […] (Senescence Cells Histochemical Staining Kit Ref […]; Sigma). Cells were imaged using a light microscope at 20× magnification and single representative images of each well were taken. Total RNA was isolated from cells using TRI Reagent® RT (Vitro Bio) according to manufacturer's protocol. 200 μL of chloroform were added to the tubes and samples were incubated for 10 min at 4° C. and then centrifugated at 14,000 g for 15 min at 4° C. After centrifugation, the aqueous phase (upper) are obtained and transferred to a new tube with 500 μL of isopropanol and samples were vortexed 15 sec. The tubes centrifugated at 14,000 g for 15 min at 4° C. Supernatant was discarded, and the RNA pellets were washed with 1 mL of 70% ethanol and centrifugated for 5 min at 7,000 g at 4° C. The supernatants were discarded, and RNA pellets were air dry. RNA was treated with DNase I, RNase free (Thermo Fisher Scientific) following manufacturer's protocol. RNA samples were quantified in a Nanodrop® ND-1000 (Thermo Fisher Scientific). 1 μg of RNA was used to synthesize complementary DNA (cDNA) with the SuperscriptTM IV VILOTM Master Mix (Invitrogen, Thermo Fisher Scientific) following manufacturer's protocol. cDNA samples are quantified in a Nanodrop® ND-1000 (Thermo Fisher Scientific) and resuspended in DNase/RNase/Protease-free water (Sigma-Aldrich). 5 μL of cDNA (1 μg) were mixed with 0.5 μL of primer mix (10 μM each primer), 10 μL of Applied BiosystemsTM PowerUPTM SYBRTM Green Master Mix (Applied Biosystems, Thermo Fisher Scientific) and complete with dH2O until 20 μL per well on LightCycler® 480 System (Roche). The program consisted on a first denaturing cycle of 10 min at 95° C. followed by 30-55 amplification cycles for 10 seconds (sec) at 95° C., 30 sec at 60° C. for annealing and 12 sec at 72° C. for extension. The primers used are listed below: […]

MCF7 cells [8] = test: Hemichannel activity (ATP release) and gap-junction communication (parachute assay); type: cell-based, human; details: MCF7 upon Cx43 restoration vs EV

Compound | reduction in cell proliferation (MCF7 cells [1]) | IC50 [2] [µM] | IC50 [3] [µM] | IC50 (T47D cells [4]) [µM] | effect of Cx43 overexpression on the CDK4/6 inhibitor's effect on cell proliferation (MCF7 cells [1]; MCF7 Cx43 vs EV, 7 days, colony formation) | effect of Cx43 overexpression on inhibitor efficacy (reduction in proliferation) (A375 melanoma cells) | colony formation capacity (T47D cells [5]) | effect of Cx43 overexpression on inhibitor efficacy (reduction in proliferation) [6] | β-galactosidase activity (MCF7 cells [7]; MCF7, SA-β-galactosidase staining) | apoptotic markers Bax and Bcl2 protein (MCF7 cells [7]; MCF7, western-blot) | levels of senescent markers p21 and p53 (MCF7 cells [7]; MCF7, western-blot, vs vector control (EV)) | SASP factors IL6, IL8, MMP9 (qPCR) (MCF7 cells [7]; MCF7 overexpressing Cx43 vs EV) | cell proliferation / colony formation capacity (MCF7 cells [1]; MCF7, 7 days) | hemichannels activity and gap-junction intercellular communication (MCF7 cells [8])
CC(=O)c1c(C)c2cnc(Nc3ccc(N4CCNCC4)cn3)nc2n(C2CCCC2)c1=O [Palbociclib] | around 40% | 0.282 | 0.0668 | 0.121 |  |  |  |  |  |  |  |  |  | 
CN(C)C(=O)c1cc2cnc(Nc3ccc(N4CCNCC4)cn3)nc2n1C1CCCC1 [Ribociclib] |  |  |  |  | enhances the effect | increases the efficacy | effectively respond | increases the efficacy |  |  |  |  |  | 
Cx43: connexin 43 overexpressed in tumour cells by retroviral vector or plasmid | 50% |  |  |  |  |  |  |  | increases β-galactosidase activity | increases the pro-apoptotic protein Bax and reduces Bcl2 | increases the levels of the senescent markers p21 and p53 | increases the secretion of different cytokines such as IL6, IL8 and MMP9 | induces proliferation arrest; also recorded: significantly reduced cell proliferation and colony formation capacity | increase in hemichannels activity and gap-junction intercellular communication
